Results published in patent US20050192261A1, “Methods and reagents for the treatment of immunoinflammatory disorders” (priority 2003, published 2005).
Several values for one entry are separate records, joined by “and”; a condition that tells them apart may be missing. Identical values can stand only once. Counter-ions that a name gives are not always drawn. Like-named read-outs stand apart in the source and are kept apart here.

Tested on: TNFα secretion in white blood cells from human buffy coat stimulated with phorbol 12-myristate 13-acetate and ionomycin
Test: TNFα secretion assay
Conditions: for inhibition at 0.2 µM: read-out: percent inhibition of TNFα secretion, Amoxapine 0.2 μM; for inhibition at 0.4 µM: read-out: percent inhibition of TNFα secretion, Amoxapine 0.4 μM; for inhibition at 0.8 µM: read-out: percent inhibition of TNFα secretion, Amoxapine 0.8 μM; for inhibition at 13 µM: read-out: percent inhibition of TNFα secretion, Amoxapine 13 μM; for inhibition at 25 µM: read-out: percent inhibition of TNFα secretion, Amoxapine 25 μM
[1] = Homo sapiens, Bromodiphenhydramine HCl μM: 0/0.21/0.43/0.85/1.7/3.4/6.8/14/27
[2] = Homo sapiens, Cyproheptadine HCl μM: 0/0.24/0.48/0.96/1.9/3.9/7.7/15/31
[3] = Homo sapiens, Loratadine 0/0.2/0.41/0.82/1.6/3.3/6.5/13/26 μM
[4] = Homo sapiens, Thiethylperazine Maleate μM: 0/0.2/0.39/0.78/1.6/3.1/6.3/13/25

Method: Drugs were added to the indicated concentration. […] The plate was then washed again with 0.1% Tween 20/PBS. An HRP-luminescent substrate was added to each well, and the light intensity of each well was measured using a plate luminometer.

**Q.** Which results are given for `CNCCC(Oc1ccc(C(F)(F)F)cc1)c1ccccc1` (racemic) [Fluoxetine HCl, (±)-N-methyl-3-phenyl-3-[((alpha),(alpha),(alpha)-trifluoro-p-tolyl)oxy]propylamine hydrochloride]?
**A.** inhibition at 0.9 µM (Homo sapiens, read-out: percent inhibition of TNFα secretion, Fluoxetine HCl 0.9 μM, Cyproheptadine HCl: 0/0.24/0.48/0.96/1.9/3.9/7.7/15/31 μM): -1.1%; inhibition at 14 µM (Homo sapiens, read-out: percent inhibition of TNFα secretion, Fluoxetine HCl 14 μM, Cyproheptadine HCl: 0/0.24/0.48/0.96/1.9/3.9/7.7/15/31 μM): 16%; inhibition at 29 µM (Homo sapiens, read-out: percent inhibition of TNFα secretion, Fluoxetine HCl 29 μM, Cyproheptadine HCl: 0/0.24/0.48/0.96/1.9/3.9/7.7/15/31 μM): 41%; percent inhibition of TNFα secretion (Promethazine HCl 0 μM, Fluoxetine HCl μM r5-r13: 0,0.23,0.45,0.9,1.8,3.6,7.2,14,29, hydrochloride): 1.71% and −2.67% and 4.37% and 2.89% and −0.34% and −0.46% and −0.103% and 4.12%

**Q.** Which results are given for `Clc1ccc2c(c1)C(N1CCNCC1)=Nc1ccccc1O2` [Amoxapine, amoxapine]?
**A.** inhibition at 0.2 µM [1]: 4.3%; inhibition at 0.2 µM [2]: 3.5%; inhibition at 0.2 µM [3]: 7.52%; inhibition at 0.2 µM [4]: 12%; inhibition at 0.4 µM [1]: 13%; inhibition at 0.4 µM [2]: 9.8%; inhibition at 0.4 µM [3]: 11.2%; inhibition at 0.4 µM [4]: 12%; inhibition at 0.8 µM [1]: 20%; inhibition at 0.8 µM [2]: 17%; inhibition at 0.8 µM [3]: 22.2%; inhibition at 0.8 µM [4]: 24%; inhibition at 13 µM [1]: 80%; inhibition at 13 µM [2]: 85%; inhibition at 13 µM [3]: 83.7%; inhibition at 13 µM [4]: 74%; inhibition at 25 µM [1]: 92%; inhibition at 25 µM [2]: 94%; inhibition at 25 µM [3]: 88.2%; inhibition at 25 µM [4]: 83%

**Q.** How did the inhibition at 14 µM (Homo sapiens, read-out: percent inhibition of TNFα secretion, Bromodiphenhydramine HCl 14 μM, Fluoxetine HCl μM: 0/0.23/0.45/0.9/1.8/3.6/7.2/14/29) turn out when `CN(C)CCOC(c1ccccc1)c1ccc(Br)cc1` (stereo not drawn) [Bromodiphenhydramine HCl, bromodiphenhydramine] was run?
**A.** 39%

**Q.** And the inhibition at 27 µM (Homo sapiens, read-out: percent inhibition of TNFα secretion, Bromodiphenhydramine HCl 27 μM, Fluoxetine HCl μM: 0/0.23/0.45/0.9/1.8/3.6/7.2/14/29)?
**A.** 65.2%

**Q.** And the “percent inhibition of TNFα secretion” value (Nortryptyline HCl 0 μM (Bromodiphenhydramine HCl alone), Bromodiphenhydramine HCl μM: 0/0.21/0.43/0.85/1.7/3.4/6.8/14/27)?
**A.** −15
